Assay results as given in patent US20150031102A1, “METHODS AND COMPOSITIONS FOR ENHANCED PRODUCTION OF BUTANOL BY CLOSTRIDIA” (Butrolix LLC, priority 2012, published 2015).
Marks after values point to notes of the source that are not given here.

What was measured:
C. acetobutylicum [1] = assay: Time course study of replicate 250 mL batch cultures (growth, butanol, residual glucose, yield, productivity); format: cell-based, Clostridium acetobutylicum; details: for Increased butanol concentration versus untreated: 50 nM BP1106213; for Butanol concentration / Residual glucose: 50 nM peptide, average ± SD of triplicate, second time course study; for Residual glucose: initial glucose 60 g/L
Method: Subsequently, time-course studies were conducted using the optimum peptide treatment level that was determined by the sequential batch transfer experiments. Untreated and peptide-treated cultures were grown in triplicate 250 mL batches that were inoculated with […] of the ninth sequential transfer from 24-well culture plates. The 1/1000 ratio of inoculum to culture volume was the same as that used throughout the prior sequential batch transfer experiments, and the replicate time course batch cultures corresponded to the 10th sequential batch transfer. Samples were recovered from the triplicate control and experimental batches a regular time intervals up to 96 hours of culture. Optical density of the replicates was measured and culture supernatants were recovered following centrifugation and analyzed later for butanol and residual glucose concentrations. The analyses were used to calculate yield and productivity of the cultures.
Clostridium acetobutylicum strain ATCC 824 was used in all experiments and the growth medium used for sequential batch transfer, time course, and continuous culture experiments contained yeast extract, casamino acids, L-cysteine, L-asparagine, phosphate buffer, trace minerals, and 6% glucose. What are believed to be quorum-sensing peptides that were used in the experiments were chemically synthesized peptides SEQ ID NO: 143 (amino acid sequence: SYPGWSW) and SEQ ID NO: 144 (amino acid sequence: ILILISG). Routine growth of the bacteria as well as the sequential batch and time course experiments were conducted in a Form a Scientific Model 1029 anaerobic gas chamber at 32° C. Continuous cultures were performed at 32° C. using duplicate New Brunswick Scientific BioFlo 3000 apparati with a dilution rate of 0.01 volume per hour, 75 rpm agitation, and nitrogen gas sparging. Optical density of culture samples was measured at 600 nm in a Beckman DU 600 series spectrophotometer and glucose was analyzed using a YSI Model 2700 Select Biochemistry Analyzer with internal glucose calibration. Butanol concentrations were determined by measuring experimental and standard samples using a Varian Saturn 3 Gas Chromatograph/Mass Spectrometer and calculating butanol concentrations using standard curves.
(§1) The study was started by inoculating triplicate 250 mL batches of untreated and peptide-treated medium with 250 μL of the corresponding ninth sequential transfer from 24-well culture plates. Therefore, the replicate time course batch cultures corresponded to the 10th sequential batch transfer. Samples were recovered from the triplicate control and experimental batches at regular time intervals up to 96 hours of culture for measurement of optical density at 600 nm and analysis of butanol and residual glucose concentrations.
as §1, with “Like the previous time course experiment, this” for “The”, “As before, samples” for “Therefore, the replicate time course batch cultures corresponded to the 10th sequential batch transfer. Samples”, “density” for “density at 600 nm”

C. acetobutylicum [2] = assay: Calculated optimum peptide treatment level (polynomial curve fitted to butanol concentration vs treatment level per culture transfer); format: cell-based, Clostridium acetobutylicum
Excerpt: FIG. 20. Calculation of optimum peptide treatment level for transfer 13 of the first experiment that tested peptide BP110517 (SEQ ID NO:143) (see Table 1 for data). The four butanol concentration data points were graphed against the treatment levels and a polynomial curve was fitted to the graph.
The data from the sequential batch culture experiments treated with peptides BP110517 and BP1106213 were used to calculate optimum peptide treatment levels for enhanced butanol production by C. acetobutylicum. The calculation was made for each culture transfer using the butanol concentration results from control and experimental wells. The four data points for each culture transfer were graphed against the treatment levels, and a polynomial curve was fitted to the graph.
Then, the first derivative of the polynomial fitted to the data for each culture transfer was solved for “x”, which was the maximum point of the fitted polynomial curve (Table 46). The resulting peptide concentration value was assumed to be close to an optimum peptide treatment level that would result in enhanced butanol production.

ILILISG (Derived from Clostridium acetobutylicum SEQ ID NO: 110) [peptide SEQ ID NO: 144]
Increased butanol concentration versus untreated (C. acetobutylicum [1]; 72 hours of culture growth): ≤ 15%
Increased butanol concentration versus untreated (C. acetobutylicum [1]; 96 hours of culture growth): ≤ 21%
Butanol concentration (C. acetobutylicum [1]; 0 hours): 0.23 ± 0.00 g/L
Residual glucose (C. acetobutylicum [1]; 0 hours): 59.1 ± 0.9 g/L
Butanol concentration (C. acetobutylicum [1]; 6 hours): 0.24 ± 0.00 g/L
Residual glucose (C. acetobutylicum [1]; 6 hours): 59.8 ± 0.9 g/L
Butanol concentration (C. acetobutylicum [1]; 12 hours): 0.26 ± 0.01^c g/L
Residual glucose (C. acetobutylicum [1]; 12 hours): 60.7 ± 0.8 g/L
Butanol concentration (C. acetobutylicum [1]; 15 hours): 0.26 ± 0.01^c g/L
Residual glucose (C. acetobutylicum [1]; 15 hours): 58.4 ± 0.5 g/L
Butanol concentration (C. acetobutylicum [1]; 18 hours): 0.28 ± 0.01^c g/L
Residual glucose (C. acetobutylicum [1]; 18 hours): 57.4 ± 0.7 g/L
Butanol concentration (C. acetobutylicum [1]; 21 hours): 0.32 ± 0.01 g/L
Residual glucose (C. acetobutylicum [1]; 21 hours): 60.6 ± 0.8 g/L
Butanol concentration (C. acetobutylicum [1]; 24 hours): 0.52 ± 0.01^c g/L
Residual glucose (C. acetobutylicum [1]; 24 hours): 49.4 ± 0.7 g/L
Butanol concentration (C. acetobutylicum [1]; 27 hours): 0.64 ± 0.01 g/L
Residual glucose (C. acetobutylicum [1]; 27 hours): 50.4 ± 1.9 g/L
Butanol concentration (C. acetobutylicum [1]; 30 hours): 0.70 ± 0.04 g/L
Residual glucose (C. acetobutylicum [1]; 30 hours): 49.7 ± 1.9 g/L
Butanol concentration (C. acetobutylicum [1]; 33 hours): 0.82 ± 0.03 g/L
Residual glucose (C. acetobutylicum [1]; 33 hours): 47.6 ± 1.2 g/L
Butanol concentration (C. acetobutylicum [1]; 36 hours): 0.82 ± 0.03 g/L
Residual glucose (C. acetobutylicum [1]; 36 hours): 47.4 ± 1.3 g/L
Butanol concentration (C. acetobutylicum [1]; 48 hours): 1.00 ± 0.03 g/L
Residual glucose (C. acetobutylicum [1]; 48 hours): 44.9 ± 0.5 g/L
Butanol concentration (C. acetobutylicum [1]; 72 hours): 1.17 ± 0.12^c g/L
Residual glucose (C. acetobutylicum [1]; 72 hours): 44.1 ± 3.1 g/L
Butanol concentration (C. acetobutylicum [1]; 96 hours): 0.98 ± 0.07 g/L
Residual glucose (C. acetobutylicum [1]; 96 hours): 46.4 ± 0.9^c g/L
Calculated Optimum Peptide Level, Average (C. acetobutylicum [2]; average over culture transfers, Expt. 1): 46.2 ± 10.7 nM
Calculated Optimum Peptide Level, Average (C. acetobutylicum [2]; average over culture transfers, Expt. 2): 40.5 ± 3.8 nM
Average optimum peptide treatment level (C. acetobutylicum [2]; average over culture transfers, both experiments for BP110517, single non-inhibitory experiment for BP1106213, fairly large standard deviations): mid to high 40
Calculated Optimum Peptide Level (C. acetobutylicum [2]; transfer 4, Expt. 1): 46.0 nM
Calculated Optimum Peptide Level (C. acetobutylicum [2]; transfer 4, Expt. 2): Inhib.
Calculated Optimum Peptide Level (C. acetobutylicum [2]; transfer 7, Expt. 1): 32.4 nM
Calculated Optimum Peptide Level (C. acetobutylicum [2]; transfer 7, Expt. 2): Inhib.
Calculated Optimum Peptide Level (C. acetobutylicum [2]; transfer 10, Expt. 1): 49.0 nM
Calculated Optimum Peptide Level (C. acetobutylicum [2]; transfer 10, Expt. 2): Inhib.
Calculated Optimum Peptide Level (C. acetobutylicum [2]; transfer 13, Expt. 1): Inhib.^d
Calculated Optimum Peptide Level (C. acetobutylicum [2]; transfer 13, Expt. 2): 43.2 nM
Calculated Optimum Peptide Level (C. acetobutylicum [2]; transfer 16, Expt. 1): 50.7 nM
Calculated Optimum Peptide Level (C. acetobutylicum [2]; transfer 16, Expt. 2): Inhib.
Calculated Optimum Peptide Level (C. acetobutylicum [2]; transfer 19, Expt. 1): 36.8 nM
Calculated Optimum Peptide Level (C. acetobutylicum [2]; transfer 19, Expt. 2): Inhib.
Calculated Optimum Peptide Level (C. acetobutylicum [2]; transfer 22, Expt. 1): 62.4 nM
Calculated Optimum Peptide Level (C. acetobutylicum [2]; transfer 22, Expt. 2): 37.8 nM
